Experimental data taken from BigSolDB 2.1.

c1ccc2c(c1)CCc1ccccc1N2
solubility (mole fraction)
Conditions	283.15 K	288.15 K	293.15 K	298.15 K	303.15 K	308.15 K	313.15 K	318.15 K	323.15 K	328.15 K
in DMSO	–	–	0.0199	0.0239	0.0285	0.0336	0.0391	0.045	0.0516	0.0592
in ethanol	0.000769	0.00102	0.00136	0.00175	0.00227	0.00284	0.0036	0.00453	0.00558	0.00691
in ethylene glycol	0.000351	0.000427	0.000494	0.000566	0.000642	0.000722	0.000812	0.000905	0.00101	0.00111
in isopropanol	0.000448	0.000585	0.000783	0.000992	0.00127	0.00161	0.00204	0.00253	0.00314	0.00388
in water	8.4e-07	1.27e-06	1.83e-06	2.73e-06	3.77e-06	5.41e-06	7.42e-06	1.02e-05	1.39e-05	1.87e-05
